Results published in article PMC9518264, “Design and synthesis of novel quinazolinone-based derivatives as EGFR inhibitors with antitumor activity” (Journal of Enzyme Inhibition and Medicinal Chemistry, 2022).

Legend:
[1] = test system: SR; experiment: cells; type: cell-based; conditions: Homo sapiens, 10 μM, supplementary table 3a-g, read-out: growth inhibition % (GI %)
[2] = test system: UO-31; experiment: cells; type: cell-based; conditions: Homo sapiens; UO-31; 10 μM; supplementary table 3a-g; read-out: growth inhibition % (GI %)
[3] = test system: panel of 60 tumour cell lines; experiment: NCI 60 cell line antiproliferative screening (SRB), whole panel or subpanels (means, ranges, words); type: cell-based, human; conditions: Homo sapiens, 60 cell, mean over the cell line panel; 10 μM; supplementary table 3a-g; read-out: Mean inhibition
[4] = test system: K-562; experiment: cells; type: cell-based; conditions: Homo sapiens, K562; K-562; 10 μM; supplementary table 3a-g; read-out: growth inhibition % (GI %)
[5] = test system: caspase-3; experiment: Caspase-3 activation (ELISA) in breast HS 578T cancer cell line; type: cell-based, human
Method: Apoptosis is triggered by the activation of caspases, particularly caspase-3, which is an […] caspase responsible for apoptosis. Therefore, the induction of apoptosis by compound 6d was examined by the evaluation of caspase-3 activation in breast HS 578T cancer cell line. The effect of erlotinib as well as untreated cell line was used as positive and negative control, respectively. […] . […]
incubated for 15 minutes in the dark at room temperature. FacsCalibur was used to assess cell fluorescence after incubation (BD Biosciences, USA). The results were represented using dot-plot graphs.
1.1.5. Caspase-3 enzyme assay
The level of the apoptotic marker caspase-3 was measured using Invitrogen ELISA Kit Catalog # KHO1091. The procedure of the used kit was performed according to the manufacturer’s instructions. Let all components to reach room temperature before use. Gently combine all liquid reagents prior to use. Add 100 μL of the standard diluent buffer to the zero standard wells. Add 100 μL of standards and controls or diluted samples to the appropriate microtiter wells. Incubate for 2 h at room temperature. Pipette 100 μL of Caspase-3 (Active) detection antibody solution into each well. […] Read the absorbance of each well at 450 nm. Read the plate within 2 h after adding the stop solution. […] Read the concentrations for unknown samples and controls from the standard curve.

[6] = test system: NCI-H226; experiment: cells; type: cell-based; conditions: Homo sapiens; NCI-H226; 10 μM; supplementary table 3a-g; read-out: growth inhibition % (GI %)
[7] = test system: HOP-92; experiment: cells; type: cell-based; conditions: Homo sapiens; HOP-92; 10 μM; supplementary table 3a-g; read-out: growth inhibition % (GI %)
[8] = test system: RXF 393; experiment: cells; type: cell-based; conditions: Homo sapiens; RXF 393; 10 μM; supplementary table 3a-g; read-out: growth inhibition % (GI %)

Row | SMILES | inhibition at 10 µM [1] | inhibition at 10 µM [2] | inhibition at 10 µM [3] | inhibition at 10 µM [4] | melting point | increase of caspase-3 level compared to negative control [5] | inhibition at 10 µM [6] | inhibition at 10 µM [7] | inhibition at 10 µM [8]
1 | O=c1c2ccccc2nc(NN=Cc2ccc(Oc3ccc(Br)cc3)cc2)n1-c1ccccc1 [3b, 2–(2-(4–(4-bromophenoxy)benzylidene)hydrazinyl)-3-phenylquinazolin-4(3H)-one] | < 15% | < 15% | < 0% | < 15% | 198 to 200 °C | – | – | – | –
2 | C#Cc1cccc(Nc2ncnc3cc(OCCOC)c(OCCOC)cc23)c1 [Erlotinib, erlotinib, reference compound] | – | – | – | – | – | 8.78 fold | – | – | –
3 | O=c1c2ccccc2nc(NN=Cc2ccc(Oc3ccc(Cl)cc3)cc2)n1-c1ccc(Cl)cc1 [3d, 2–(2-(4–(4-chlorophenoxy)benzylidene)hydrazinyl)-3–(4-chlorophenyl)quinazolin-4(3H)-one] | < 15% | < 15% | < 0% | < 15% | 212 to 214 °C | – | < 15% | < 15% | –
4 | CN1CCN(c2ccc(C=NNc3nc4ccccc4c(=O)n3-c3ccccc3)cc2)CC1 [3g, 2–(2-(4–(4-methylpiperazin-1-yl)benzylidene)hydrazinyl)-3-phenylquinazolin-4(3H)-one] | < 15% | 21% | < 0% | < 15% | 208 to 210 °C | – | < 15% | 16% | 25.1%
5 | O=c1c2ccccc2nc(NN=Cc2ccc(Oc3ccc(Cl)cc3)cc2)n1-c1ccccc1 [3a, 2–(2-(4–(4-chlorophenoxy)benzylidene)hydrazinyl)-3-phenylquinazolin-4(3H)-one] | < 15% | < 15% | < 0% | < 15% | 158 to 164 °C | – | < 15% | < 15% | < 15%
6 | O=c1c2ccccc2nc(NN=Cc2ccc(N3CCCCC3)cc2)n1-c1ccccc1 [3e, 3-phenyl-2–(2-(4-(piperidin-1-yl)benzylidene)hydrazinyl)quinazolin-4(3H)-one] | < 15% | < 15% | < 0% | < 15% | 160 to 166 °C | – | < 15% | < 15% | < 15%
7 | COc1ccc(Oc2ccc(C=NNc3nc4ccccc4c(=O)n3-c3ccccc3)cc2)cc1 [3c, 2–(2-(4–(4-methoxyphenoxy)benzylidene)hydrazinyl)-3-phenylquinazolin-4(3H)-one] | 16% | 21.6% | 1.6% | 24.8% | 185 to 188 °C | – | 15.2% | < 15% | < 15%
8 | O=c1c2ccccc2nc(NN=Cc2ccc(N3CCOCC3)cc2)n1-c1ccccc1 [3f, 2–(2-(4-morpholinobenzylidene)hydrazinyl)-3-phenylquinazolin-4(3H)-one] | < 15% | < 15% | < 0% | < 15% | 242 to 244 °C | – | < 15% | < 15% | < 15%
